Measurements: patent publication US6064908A, “Device for ionophoresis comprising at least a membrane electrode assembly, for the transcutaneous administration of active principles to a subject” (Elf Aquitaine, priority 1996, dated 2000)

Assay: administration of pentasaccharide sodium salt in mini pigs by iontophoresis at set current density; antifactor Xa plasma levels
Assay type: in vivo, mini pigs of the YUCATAN strain
Procedure: Administration in mini pigs of pentasaccharide sodium salt by iontophoresis at a set current density.
Specialists consider mini pigs of the YUCATAN strain to be an excellent animal model for studying the administration in man of medicaments by iontophoresis. This is because the skin structure of this animal is very similar to that of human skin.
The following tests were carried out on the aforementioned mini pig with the aim of comparing the administration by iontophoresis of the sodium salt of the pentasaccharide used in Example 1 with administration by subcutaneous injection.
For these tests, pairs of adhesive electrode assemblies were formed, each pair comprising a donor electrode assembly, equipped with a reversible negative electrode (active electrode) and containing the pentasaccharide to be administered, and a passive electrode assembly formed by a positive electrode (back electrode) in contact with a second reservoir element containing an arbitrary (i.e. indifferent) electrolyte.
In the donor electrode assembly according to the invention, as well as in the reference donor assembly, the electrode 6 made of chloridized silver contained a quantity of silver chloride equivalent to 1.8 mAh/cm^2, thus allowing the electrode to sustain the quantity of electricity flowing through the electrodes over the duration of the iontophoretic treatment, namely 0.88 mAh/cm^2.
The primary electrolyte medium constituting the primary reservoir element 11 of the donor electrode assembly according to the invention, as well as the conducting, absorbent, porous material forming the reservoir element 11 of the reference electrode assembly, each consisted of a sheet of blotting paper made of cellulose fibres supplemented by polypropylene fibrils, having a surface area of 20 cm^2 and a thickness of 0.5 mm and being impregnated, to a level of 50 mg/cm^2, with an aqueous solution containing 2% by weight of pentasaccharide. Each reservoir element 11 contained in total 1 g of solution, i.e. 20 mg of pentasaccharide over 20 cm^2 of active surface (1 mg/cm^2). 20 mg of pentasaccharide were therefore employed in total per animal.
The selectively permeable membrane separating the recesses 2 and 15 of the donor electrode assembly according to the invention, that is to say separating the primary 11 and secondary 20 reservoir elements of the said electrode assembly, consisted of a 50 μm thick film of the polyether block amide PEBAX MV 1041 defined in Example 1.
In each passive electrode assembly, the positive electrode (back electrode) made of chloridized silver contained a quantity of silver chloride equivalent to 0.1 mAh/cm^2 and the reservoir element associated with this electrode consisted of a sheet of blotting paper made of cellulose fibres supplemented by polypropylene fibrils having a surface area of 20 cm^2 and a thickness of 0.5 mm and was impregnated with an aqueous solution of NaCl to contain 6% by weight of this salt.
An electric signal generator which could be connected to the electrodes of each pair of electrode assemblies, made it possible to deliver a continuous electric signal of controlled intensity between the said electrodes.
Five days before each test, the animals were catheterized in the two jugulars, as is well known for any experimentation in medicament administration, in order to make it possible to take regular blood samples intended for assaying the antifactor Xa activities and thereby to evaluate the quantities of active principle that pass through the skin to enter the circulatory system and therefore to check the effectiveness of the iontophoretic treatment.
The animals, fasted from the day before the experiments, were placed in specialized hammocks. […]

Bioavailability (Test 2a: passive, no current): 0% | plasma level, Antifactor Xa (Test 2a: passive, no current, 0 h): 0 units/ml | plasma level, Antifactor Xa (Test 2a: passive, no current, 0.25 h): 0 units/ml | plasma level, Antifactor Xa (Test 2a: passive, no current, 0.50 h): 0 units/ml | plasma level, Antifactor Xa (Test 2a: passive, no current, 1.00 h): 0 units/ml | plasma level, Antifactor Xa (Test 2a: passive, no current, 2.00 h): 0 units/ml | plasma level, Antifactor Xa (Test 2a: passive, no current, 4.00 h): 0 units/ml | plasma level, Antifactor Xa (Test 2a: passive, no current, 6.00 h): 0 units/ml | plasma level, Antifactor Xa (Test 2a: passive, no current, 8.00 h): 0 units/ml | plasma level, Antifactor Xa (Test 2a: passive, no current, 10.00 h): 0 units/ml | plasma level, Antifactor Xa (Test 2a: passive, no current, 16.00 h): 0 units/ml | plasma level, Antifactor Xa (Test 2a: passive, no current, 24.00 h): 0 units/ml | plasma level, Antifactor Xa (Test 2a: passive, no current, 30.00 h): 0 units/ml | plasma levels (antifactor Xa), invention vs reference iontophoresis (Test 2b vs Test 2c): more than three times higher | plasma level, Antifactor Xa (Test 2b: iontophoresis, PEBAX MV 1041 membrane, 20 mg, 8 hours): 1 units/ml | plasma level, Antifactor Xa (Test 2b: iontophoresis, PEBAX MV 1041 membrane, 20 mg, 8 hours, 0 h): 0 units/ml | plasma level, Antifactor Xa (Test 2b: iontophoresis, PEBAX MV 1041 membrane, 20 mg, 8 hours, 0.25 h): 0.07 units/ml | plasma level, Antifactor Xa (Test 2b: iontophoresis, PEBAX MV 1041 membrane, 20 mg, 8 hours, 0.50 h): 0.14 units/ml | plasma level, Antifactor Xa (Test 2b: iontophoresis, PEBAX MV 1041 membrane, 20 mg, 8 hours, 1.00 h): 0.36 units/ml | plasma level, Antifactor Xa (Test 2b: iontophoresis, PEBAX MV 1041 membrane, 20 mg, 8 hours, 2.00 h): 0.81 units/ml | plasma level, Antifactor Xa (Test 2b: iontophoresis, PEBAX MV 1041 membrane, 20 mg, 8 hours, 4.00 h): 1.3 units/ml | plasma level, Antifactor Xa (Test 2b: iontophoresis, PEBAX MV 1041 membrane, 20 mg, 8 hours, 6.00 h): 0.98 units/ml | plasma level, Antifactor Xa (Test 2b: iontophoresis, PEBAX MV 1041 membrane, 20 mg, 8 hours, 10.00 h): 0.79 units/ml | plasma level, Antifactor Xa (Test 2b: iontophoresis, PEBAX MV 1041 membrane, 20 mg, 8 hours, 16.00 h): 0.38 units/ml | plasma level, Antifactor Xa (Test 2b: iontophoresis, PEBAX MV 1041 membrane, 20 mg, 8 hours, 24.00 h): 0.12 units/ml | plasma level, Antifactor Xa (Test 2b: iontophoresis, PEBAX MV 1041 membrane, 20 mg, 8 hours, 30.00 h): 0.04 units/ml | plasma level, Antifactor Xa (Test 2b: iontophoresis, PEBAX MV 1041 membrane, 20 mg, 8 hours, […]): 0.61 units/ml | plasma level, Antifactor Xa (Test 2c: reference iontophoresis, no membrane, 20 mg, 8 hours): 0.35 units/ml | plasma level, Antifactor Xa (Test 2c: reference iontophoresis, no membrane, 20 mg, 8 hours, 0 h): 0 units/ml | plasma level, Antifactor Xa (Test 2c: reference iontophoresis, no membrane, 20 mg, 8 hours, 0.25 h): 0.03 units/ml | plasma level, Antifactor Xa (Test 2c: reference iontophoresis, no membrane, 20 mg, 8 hours, 0.50 h): 0.05 units/ml | plasma level, Antifactor Xa (Test 2c: reference iontophoresis, no membrane, 20 mg, 8 hours, 1.00 h): 0.09 units/ml | plasma level, Antifactor Xa (Test 2c: reference iontophoresis, no membrane, 20 mg, 8 hours, 2.00 h): 0.13 units/ml | plasma level, Antifactor Xa (Test 2c: reference iontophoresis, no membrane, 20 mg, 8 hours, 4.00 h): 0.27 units/ml | plasma level, Antifactor Xa (Test 2c: reference iontophoresis, no membrane, 20 mg, 8 hours, 6.00 h): 0.29 units/ml | plasma level, Antifactor Xa (Test 2c: reference iontophoresis, no membrane, 20 mg, 8 hours, 10.00 h): 0.34 units/ml | plasma level, Antifactor Xa (Test 2c: reference iontophoresis, no membrane, 20 mg, 8 hours, 16.00 h): 0.11 units/ml | plasma level, Antifactor Xa (Test 2c: reference iontophoresis, no membrane, 20 mg, 8 hours, 24.00 h): 0.08 units/ml | plasma level, Antifactor Xa (Test 2c: reference iontophoresis, no membrane, 20 mg, 8 hours, 30.00 h): 0.01 units/ml | plasma level, Antifactor Xa (Test 2c: reference iontophoresis, no membrane, 20 mg, 8 hours, […]): 0.14 units/ml | plasma level, Antifactor Xa (Test 2d: subcutaneous injection 0.200 mg/kg, 0 h): 0 units/ml | plasma level, Antifactor Xa (Test 2d: subcutaneous injection 0.200 mg/kg, 0.25 h): 0.11 units/ml | plasma level, Antifactor Xa (Test 2d: subcutaneous injection 0.200 mg/kg, 0.50 h): 0.13 units/ml | plasma level, Antifactor Xa (Test 2d: subcutaneous injection 0.200 mg/kg, 1.00 h): 0.17 units/ml | plasma level, Antifactor Xa (Test 2d: subcutaneous injection 0.200 mg/kg, 2.00 h): 0.22 units/ml | plasma level, Antifactor Xa (Test 2d: subcutaneous injection 0.200 mg/kg, 4.00 h): 0.26 units/ml | plasma level, Antifactor Xa (Test 2d: subcutaneous injection 0.200 mg/kg, 6.00 h): 0.24 units/ml | plasma level, Antifactor Xa (Test 2d: subcutaneous injection 0.200 mg/kg, 8.00 h): 0.15 units/ml | plasma level, Antifactor Xa (Test 2d: subcutaneous injection 0.200 mg/kg, 10.00 h): 0.12 units/ml | plasma level, Antifactor Xa (Test 2d: subcutaneous injection 0.200 mg/kg, 16.00 h): 0.06 units/ml | plasma level, Antifactor Xa (Test 2d: subcutaneous injection 0.200 mg/kg, 24.00 h): 0.00 units/ml | plasma level, Antifactor Xa (Test 2d: subcutaneous injection 0.200 mg/kg, 30.00 h): 0.00 units/ml | plasma level, Antifactor Xa (Test 2d: subcutaneous injection 0.200 mg/kg, […]): 0.06 units/ml
Structure (SMILES): O=C(O)C1OC(OC2C(COS(=O)(=O)O)OC(OC3C(C(=O)O)OC(OC4C(COS(=O)(=O)O)OC(O)C(NS(=O)(=O)O)C4O)C(OS(=O)(=O)O)C3O)C(NS(=O)(=O)O)C2OS(=O)(=O)O)C(O)C(O)C1OC1OC(COS(=O)(=O)O)C(O)C(O)C1NS(=O)(=O)O (stereo not drawn) [pentasaccharide]
bioavailability for the in-vivo tests vs in-vitro utilization factors (Example 2 vs Example 1): higher than the utilization factors which were obtained for the in-vitro tests
